Results as given in patent US11427869B2, “T cell balance gene expression, compositions of matters and methods of use thereof” (THE BROAD INSTITUTE, INC., priority 2015, dated 2022).

System: CD5L−/− Th17 cells
Assay: Nanostring nCounter Th17 codeset (312 genes), PUFA- or control-treated CD5L−/− Th17 cells
Type: cell-based, mouse
Details: CD5LKO Th17 cells + PUFA
Excerpt: Applicants studied the contribution of lipid saturation to Th17 cell pathogenicity. […] Applicants analyzed the expression of a 312 gene signature of Th17 cell differentiation and function (Yosef et al., 2013) in SFA- or control-treated WT Th17 cells and in PUFA- or control-treated CD5L−/− Th17 cells differentiated with TGF-81+IL-6.
T cell differentiation culture. Naïve CD4+CD44−CD62L+CD25− T cells or Effector memory CD4+CD44+CD62L− were sorted using BD FACSAria sorter and activated with plate-bound anti-CD3 and anti-CD28 antibodies (both at 2 μg/ml) in the presence of cytokines at a concentration of 2.5×10^5 cells/ml. For Th17 differentiation: 2 ng/ml of rhTGFβ1, 2 ng/ml of rhTGFβ3, 25 ng/ml rmIL-6, 20 ng/ml rmIL-18 (all from Miltenyi Biotec) and 20 ng/ml rmIL-23 (R & D systems) were used at various combinations as specified in figures. For Th1 differentiation, 20 ng/ml rmIL-12 (R & D systems); for Th2 differentiation 20 ng/ml rmIL-4 (Miltenyi Biotec); for iTreg differentiation, 2.5 ng/ml of rhTGFβ1 were used (Miltenyi Biotec). For differentiation experiments, cells were harvested at 48 hours. For restimulation experiments, cells were differentiated for 48 hours and resuspended in fresh media with no additional cytokines for 48-72 hours. Cells were re-stimulated with PMA/ionomycin for four hours before analysis for cytokines by intracellular cytokine staining. For experiments with exogenous fatty acid, fatty acids were purchased and resuspended first with serum-free media containing BSA prior being added to culture.
Nanostring nCounter. Nanostring nCounter platform (NanoString Technologies) is used to measure the number of RNA transcripts in RNA samples (FIG. 16I, FIG. 18D). A codeset containing 312 signature genes of Th17 cell differentiation and function as well as 4 additional house-keeping genes were custom-made (Yosef et al., 2013) and used in these experiments. Experimental procedures as detailed by the manufacturer is strictly followed.

## CCCCC/C=C\C/C=C\C/C=C\C/C=C\CCCC(=O)O [PUFA, arachidonic acid]
  ATF2 expression (Nanostring), normalized to WT: 0.89
  Abcg2 expression (Nanostring), normalized to WT: 1.20
  Acvr2a expression (Nanostring), normalized to WT: 1.32
  Ahr expression (Nanostring), normalized to WT: 1.08
  Arl5a expression (Nanostring), normalized to WT: 1.33
  Atf4 expression (Nanostring), normalized to WT: 0.73
  BC021614 expression (Nanostring), normalized to WT: 1.04
  Bcl2l11 expression (Nanostring), normalized to WT: 0.71
  Bcl3 expression (Nanostring), normalized to WT: 1.13
  Bcl11b expression (Nanostring), normalized to WT: 1.03
  Bhlhe40 expression (Nanostring), normalized to WT: 0.70
  Casp3 expression (Nanostring), normalized to WT: 0.71
  Casp4 expression (Nanostring), normalized to WT: 1.52
  Ccl1 expression (Nanostring), normalized to WT: 0.67
  Ccl20 expression (Nanostring), normalized to WT: 0.84
  Ccr4 expression (Nanostring), normalized to WT: 1.69
  Ccr8 expression (Nanostring), normalized to WT: 0.71
  Cd9 expression (Nanostring), normalized to WT: 1.27
  Cd70 expression (Nanostring), normalized to WT: 0.77
  Cd83 expression (Nanostring), normalized to WT: 0.88
  Cd86 expression (Nanostring), normalized to WT: 1.73
  Cd247 expression (Nanostring), normalized to WT: 1.32
  Clcf1 expression (Nanostring), normalized to WT: 1.25
  Csf2 expression (Nanostring), normalized to WT: 1.20
  Ctla4 expression (Nanostring), normalized to WT: 1.63
  Cxcl10 expression (Nanostring), normalized to WT: 1.64
  Cxcr3 expression (Nanostring), normalized to WT: 1.44
  Cxcr4 expression (Nanostring), normalized to WT: 0.87
  Cxcr5 expression (Nanostring), normalized to WT: 1.42
  EBF1 expression (Nanostring), normalized to WT: 1.64
  Egr2 expression (Nanostring), normalized to WT: 1.64
  Elk3 expression (Nanostring), normalized to WT: 1.04
  Ercc5 expression (Nanostring), normalized to WT: 0.66
  Etv6 expression (Nanostring), normalized to WT: 1.70
  Faim3 expression (Nanostring), normalized to WT: 1.31
  Fli1 expression (Nanostring), normalized to WT: 1.35
  Flna expression (Nanostring), normalized to WT: 1.10
  Foxo1 expression (Nanostring), normalized to WT: 1.03
  Foxp1 expression (Nanostring), normalized to WT: 1.25
  Foxp3 expression (Nanostring), normalized to WT: 1.22
  Frmd4b expression (Nanostring), normalized to WT: 1.28
  Fxd7 expression (Nanostring), normalized to WT: 0.72
  Gap43 expression (Nanostring), normalized to WT: 0.68
  Gem expression (Nanostring), normalized to WT: 0.73
  Gimap5 expression (Nanostring), normalized to WT: 1.58
  Gja1 expression (Nanostring), normalized to WT: 0.66
  Gmfg expression (Nanostring), normalized to WT: 0.76
  Grn expression (Nanostring), normalized to WT: 1.16
  Gusb expression (Nanostring), normalized to WT: 0.94
  Hip1r expression (Nanostring), normalized to WT: 0.89
  IL-33 expression (Nanostring), normalized to WT: 0.66
  Ifih1 expression (Nanostring), normalized to WT: 1.25
  Ifng expression (Nanostring), normalized to WT: 0.93
  Ikzf3 expression (Nanostring), normalized to WT: 1.06
  Il1r1 expression (Nanostring), normalized to WT: 1.36
  Il2ra expression (Nanostring), normalized to WT: 0.99
  Il3 expression (Nanostring), normalized to WT: 1.45
  Il4ra expression (Nanostring), normalized to WT: 1.13
  Il6st expression (Nanostring), normalized to WT: 0.89
  Il7r expression (Nanostring), normalized to WT: 1.37
  Il10 expression (Nanostring), normalized to WT: 1.01
  Il10ra expression (Nanostring), normalized to WT: 0.95
  Il12rb1 expression (Nanostring), normalized to WT: 0.80
  Il12rb2 expression (Nanostring), normalized to WT: 1.60
  Il17a expression (Nanostring), normalized to WT: 1.11
  Il17f expression (Nanostring), normalized to WT: 0.71
  Il21 expression (Nanostring), normalized to WT: 0.97
  Il23r expression (Nanostring), normalized to WT: 1.11
  Il27ra expression (Nanostring), normalized to WT: 1.55
  Inhba expression (Nanostring), normalized to WT: 0.81
